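Growth conditions: 96-well plates. Treatment: test compound, 48 hours, 5 concentrations. Analysis: linear interpolation between bracketing concentrations; unreached endpoints set to highest concentration. The concentration for 50% growth inhibition is given as GI50.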 Activity calls are given as the source filed them. Cut-off read from the data, not from the text of the source: active = GI50 up to about 1.1 µM and inactive = higher.
Key:
Experiment in all cases: inhibition of tumour cell growth, NCI panel, 48 h
786-0 = tested on: 786-0
A498 = tested on: A498
A549 = tested on: A549
ACHN = tested on: ACHN
BT-549 = tested on: BT-549
CAKI-1 = tested on: CAKI-1
CCRF-CEM = tested on: CCRF-CEM
COLO 205 = tested on: COLO 205
EKVX = tested on: EKVX
HCC 2998 = tested on: HCC 2998
HCT-116 = tested on: HCT-116
HCT-15 = tested on: HCT-15
HL-60 = tested on: HL-60
HOP-62 = tested on: HOP-62
HOP-92 = tested on: HOP-92
HT-29 = tested on: HT-29
Hs-578T = tested on: Hs-578T
IGROV-1 = tested on: IGROV-1
K562 = tested on: K562
KM12 = tested on: KM12
LOX IMVI = tested on: LOX IMVI
M14 = tested on: M14
MCF7 = tested on: MCF7
MDA-MB-231 = tested on: MDA-MB-231
MDA-MB-435 = tested on: MDA-MB-435
MDA-N = tested on: MDA-N
MOLT-4 = tested on: MOLT-4
Malme-3M = tested on: Malme-3M
NCI-H226 = tested on: NCI-H226
NCI-H460 = tested on: NCI-H460
NCI-H522 = tested on: NCI-H522
NCI/ADR-RES = tested on: NCI/ADR-RES
OVCAR-3 = tested on: OVCAR-3
OVCAR-4 = tested on: OVCAR-4
OVCAR-5 = tested on: OVCAR-5
OVCAR-8 = tested on: OVCAR-8
PC-3 = tested on: PC-3
RPMI-8226 = tested on: RPMI-8226
RXF 393 = tested on: RXF 393
SF-268 = tested on: SF-268
SF-295 = tested on: SF-295
SF-539 = tested on: SF-539
SK-MEL-28 = tested on: SK-MEL-28
SK-MEL-2 = tested on: SK-MEL-2
SK-MEL-5 = tested on: SK-MEL-5
SK-OV-3 = tested on: SK-OV-3
SN12C = tested on: SN12C
SNB-19 = tested on: SNB-19
SNB-75 = tested on: SNB-75
SW-620 = tested on: SW-620
TK-10 = tested on: TK-10
U-251 = tested on: U-251
UACC-257 = tested on: UACC-257
UACC-62 = tested on: UACC-62
DU-145 = tested on: DU-145
NCI-H23 = tested on: NCI-H23
SR = tested on: SR
UO-31 = tested on: UO-31

COc1ccc(-c2c(C#N)c(-c3ccc(C)cc3)n(NS(=O)(=O)c3ccccc3)c(=O)c2C#N)cc1
GI50 (786-0): 51.5 µM (inactive)
GI50 (A498): 59 µM (inactive)
GI50 (A549): 45.9 µM (inactive)
GI50 (ACHN): 45 µM (inactive)
GI50 (BT-549): 25.2 µM (inactive)
GI50 (CAKI-1): 74.1 µM (inactive)
GI50 (CCRF-CEM): 23 µM (inactive)
GI50 (COLO 205): > 100 µM (inactive)
GI50 (EKVX): 53.5 µM (inactive)
GI50 (HCC 2998): 45.8 µM (inactive)
GI50 (HCT-116): 42.6 µM (inactive)
GI50 (HCT-15): 39.3 µM
GI50 (HL-60): 19 µM (inactive)
GI50 (HOP-62): 51.3 µM (inactive)
GI50 (HOP-92): 38.8 µM (inactive)
GI50 (HT-29): 47.5 µM (inactive)
GI50 (Hs-578T): 33.7 µM (inactive)
GI50 (IGROV-1): 35.5 µM (inactive)
GI50 (K562): 60.4 µM (inactive)
GI50 (KM12): 46.3 µM (inactive)
GI50 (LOX IMVI): 30.3 µM (inactive)
GI50 (M14): 48.6 µM (inactive)
GI50 (MCF7): 28.9 µM (inactive)
GI50 (MDA-MB-231): > 100 µM (inactive)
GI50 (MDA-MB-435): 73.6 µM (inactive)
GI50 (MDA-N): 70.8 µM (inactive)
GI50 (MOLT-4): 19 µM (inactive)
GI50 (Malme-3M): > 100 µM (inactive)
GI50 (NCI-H226): > 100 µM (inactive)
GI50 (NCI-H460): 45.8 µM (inactive)
GI50 (NCI-H522): 87.7 µM (inactive)
GI50 (NCI/ADR-RES): 41.5 µM (inactive)
GI50 (OVCAR-3): 30.9 µM (inactive)
GI50 (OVCAR-4): 37.8 µM (inactive)
GI50 (OVCAR-5): > 100 µM (inactive)
GI50 (OVCAR-8): 58.1 µM (inactive)
GI50 (PC-3): 35 µM (inactive)
GI50 (RPMI-8226): 13.3 µM (inactive)
GI50 (RXF 393): 36.2 µM (inactive)
GI50 (SF-268): 80.4 µM (inactive)
GI50 (SF-295): 32.7 µM (inactive)
GI50 (SF-539): 36.6 µM (inactive)
GI50 (SK-MEL-28): 48.1 µM (inactive)
GI50 (SK-MEL-2): 50.8 µM (inactive)
GI50 (SK-MEL-5): 19.5 µM (inactive)
GI50 (SK-OV-3): 84.3 µM (inactive)
GI50 (SN12C): 65.3 µM (inactive)
GI50 (SNB-19): 58.5 µM (inactive)
GI50 (SNB-75): > 100 µM (inactive)
GI50 (SW-620): 46.7 µM (inactive)
GI50 (TK-10): 79.8 µM (inactive)
GI50 (U-251): 42.2 µM (inactive)
GI50 (UACC-257): > 100 µM (inactive)
GI50 (UACC-62): 38.5 µM (inactive)

COc1ccc(C2=NN=C3C(c4ccccc4)=Nc4ccccc4N3C2)cc1
GI50 (786-0): 10.6 µM (inactive)
GI50 (A498): 40.1 µM (inactive)
GI50 (A549): 35.7 µM (inactive)
GI50 (ACHN): 14.1 µM (inactive)
GI50 (BT-549): 40 µM (inactive)
GI50 (CCRF-CEM): 2.16 µM (inactive)
GI50 (COLO 205): 15.3 µM (inactive)
GI50 (DU-145): 8.18 µM (inactive)
GI50 (EKVX): > 100 µM (inactive)
GI50 (HCC 2998): 46.8 µM (inactive)
GI50 (HCT-116): 14.6 µM (inactive)
GI50 (HCT-15): 16.9 µM
GI50 (HL-60): 7.55 µM (inactive)
GI50 (HOP-62): 14.8 µM (inactive)
GI50 (HOP-92): 85.9 µM (inactive)
GI50 (HT-29): 20.1 µM (inactive)
GI50 (IGROV-1): 29.4 µM (inactive)
GI50 (K562): 30.8 µM (inactive)
GI50 (KM12): 21.4 µM (inactive)
GI50 (LOX IMVI): 16.9 µM (inactive)
GI50 (M14): 15.5 µM (inactive)
GI50 (MCF7): 21.7 µM (inactive)
GI50 (MDA-MB-231): 27.5 µM (inactive)
GI50 (MDA-MB-435): 27.2 µM (inactive)
GI50 (MDA-N): 49.1 µM (inactive)
GI50 (MOLT-4): 7.05 µM (inactive)
GI50 (Malme-3M): 25.2 µM (inactive)
GI50 (NCI-H226): 41.6 µM (inactive)
GI50 (NCI-H23): 21 µM (inactive)
GI50 (NCI-H460): 22.1 µM (inactive)
GI50 (NCI/ADR-RES): 10.8 µM (inactive)
GI50 (OVCAR-3): 3.06 µM (inactive)
GI50 (OVCAR-4): 6.49 µM (inactive)
GI50 (OVCAR-5): 54.2 µM (inactive)
GI50 (PC-3): 31.6 µM (inactive)
GI50 (RPMI-8226): 38.8 µM (inactive)
GI50 (RXF 393): 10.9 µM (inactive)
GI50 (SF-268): 13.6 µM (inactive)
GI50 (SF-539): 28.1 µM (inactive)
GI50 (SK-MEL-28): 12 µM (inactive)
GI50 (SK-MEL-2): 22.6 µM (inactive)
GI50 (SK-MEL-5): 21.3 µM (inactive)
GI50 (SK-OV-3): 80.2 µM (inactive)
GI50 (SN12C): 27.8 µM (inactive)
GI50 (SNB-19): 23.8 µM (inactive)
GI50 (SR): 3.04 µM (inactive)
GI50 (SW-620): 14.9 µM (inactive)
GI50 (TK-10): 23.5 µM (inactive)
GI50 (U-251): 14.5 µM (inactive)
GI50 (UACC-257): 27.5 µM (inactive)
GI50 (UACC-62): 29.2 µM (inactive)
GI50 (UO-31): 6.46 µM (inactive)
